Reference: publication PMC10669220, “In Vitro α-Glucosidase and α-Amylase Inhibition, Cytotoxicity and Free Radical Scavenging Profiling of the 6-Halogeno and Mixed 6,8-Dihalogenated 2-Aryl-4-methyl-1,2-dihydroquinazoline 3-Oxides” (Antioxidants, 2023)

Tests used:
[1] = biological target: T1, human α-amylase (Homo sapiens, UniProt P04746); assay: α-amylase inhibitor screening kit assay; assay type: biochemical; conditions: mean ± SD, triplicate; tested at 1, 5, 10, 25, 50 µM
T1 construct: purchased Abcam ab283391
T1 sequence (P04746 16-511): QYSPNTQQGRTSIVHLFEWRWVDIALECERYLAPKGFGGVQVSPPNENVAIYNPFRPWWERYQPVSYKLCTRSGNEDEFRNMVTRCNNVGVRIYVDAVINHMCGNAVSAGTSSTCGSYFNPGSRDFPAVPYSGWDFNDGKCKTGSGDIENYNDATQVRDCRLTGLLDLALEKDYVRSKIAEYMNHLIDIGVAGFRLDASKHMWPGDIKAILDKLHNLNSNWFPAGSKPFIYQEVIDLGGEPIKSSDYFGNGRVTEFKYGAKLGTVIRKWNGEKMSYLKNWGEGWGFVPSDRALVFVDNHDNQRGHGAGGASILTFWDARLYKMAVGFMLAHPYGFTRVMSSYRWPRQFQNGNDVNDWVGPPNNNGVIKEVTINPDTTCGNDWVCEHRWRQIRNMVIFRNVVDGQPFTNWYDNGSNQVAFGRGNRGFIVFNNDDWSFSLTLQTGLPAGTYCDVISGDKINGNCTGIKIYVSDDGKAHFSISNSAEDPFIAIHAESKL
Procedure: The α-amylase assay was performed in triplicate, using a 96-well plate following the procedure recommended by the manufacturer as outlined in the α-amylase inhibitor Screening Kit (Catalogue No. ab283391; Abcam). […] The average values obtained from the absorbance readings were used to determine the IC50 and standard deviation values in GraphPad prism from nonlinear regression dose–response curves.

[2] = system: nitric oxide synthase (NOS); assay: Kinetic study on inhibitory activity of NOS; assay type: biochemical; conditions: seven concentrations 1-10.0 μM; Figure 3; read-out: IC50 NOS inhibition (kinetic study)
Procedure: A nitric oxide synthase (NOS) assay was performed following the procedure recommended by the manufacturer as outlined in the screening kit (Catalogue No. EINO-100; EnzyChrom). Various concentrations (1, 2.5, 4.0, 5.5, 7.0, 8.5 and 10.0 µM) of the compounds 3i and the reference standard, DPI, were prepared. The enzyme solution (12.5 U/mL NOS, 10 uL), assay buffer (25 µL) and test samples (5 µL) were incubated at room temperature for 15 min. After pre-incubation, 10 µL of reaction mix was added and incubated at 37 °C for 60 min. A 200 µL quantity of NO detection reagent was added, the detection reaction was run at 37 °C for 60 min, and absorbance was determined at a wavelength of 540 nm using an Elisa plate reader (Varioskan Flash, ThermoFisher Scientific, Vantaa, Finland). The average of three readings was used to calculate the NOS percentage inhibition using the formula in Section 2.6.3

CC1=[N+]([O-])C(c2ccccc2)Nc2c(I)cc(Br)cc21 (centres unmarked) [Compound 3i]
IC50 [1]: 1.18 ± 0.06 µM | IC50 [2]: 6.75 ± 0.002 µM
